Test results: patent US5474988A, “5-phenylpyrrolo-1,4-benzoxazine and 5-phenylpyrrolo-1,4-benzothiazine compounds, process and intermediates for their production and pharmaceutical compositions containing them” (Kali-Chemie Pharma GmbH, priority 1993, dated 1995)

Tested on: 5-lipoxygenase
Assay: inhibition of 5-lipoxygenase activity in polymorphonuclear rat leucocytes (LTB4 formation)
Type: cell-based
Conditions: 10^-5 mol/l; 22° C.
How it was run: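 Thioglycolate-elicited peritoneal PMNs from male Sprague-Dawley rats (0.5×10^6 cells) preincubated 15 min at 22 °C with 10 μM compound in HEPES-buffered HBSS, then stimulated with 5 μM calcimycin for 10 min. LTB4 quantified by reverse-phase HPLC at 270 nm; % inhibition versus solvent control.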

Row | SMILES | In vitro inhibitory activity on LTB4 formation in rat PMNs stimulated by calcium ionophore A23187 [%]
1 | COc1ccc2c3c1c(C)c(-c1ccc(O)cc1)n3CC(CCN1CCN(c3cc(C)ccn3)CC1)O2 (centres unmarked) [Example 3, 2,3-Dihydro-5-(4-hydroxyphenyl)-7-methoxy-6-methyl-2-[2-(4-(4-methylpyridin-2-yl)piperazin-1-yl)ethyl]pyrrolo[1,2,3-de]-1,4-benzoxazine] | 96
2 | Cc1ccnc(N2CCN(CCC3Cn4c(-c5ccc(O)cc5)c(C)c5c(O)ccc(c54)O3)CC2)c1 (centres unmarked) [Example 4, 2,3-Dihydro-7-hydroxy-5-(4-hydroxyphenyl)-6-methyl-2-[2-(4-(4-methylpyridin-2-yl)piperazin-1-yl)ethyl]pyrrolo[1,2,3-de]-1,4-benzoxazine] | 100
3 | Cc1ccnc(N2CCN(C(=O)CCCC3Cn4c(-c5cc(C)c(O)c(C)c5)c(C)c5cccc(c54)O3)CC2)c1 (centres unmarked) [Example 9, 2,3-Dihydro-5-(3,5-dimethyl-4-hydroxyphenyl)-6-methyl-2-[4-(4-(4-methylpyridin-2-yl)piperazin-1-yl)-4-oxobutyl]-pyrrolo[1,2,3-de]-1,4-benzoxazine] | 86
4 | COc1cc(-c2c(C)c3cccc4c3n2CC(CCN2CCN(c3cc(C)ccn3)CC2)O4)ccc1O (centres unmarked) [Example 12] | 100
5 | Cc1ccnc(N2CCN(CCC3Cn4c(-c5ccc(O)c(O)c5)c(C)c5cccc(c54)O3)CC2)c1 (centres unmarked) [Example 13] | 98
6 | Cc1ccnc(N2CCN(C(=O)CCC3Cn4c(-c5ccc(O)cc5)c(C)c5cccc(c54)O3)CC2)c1 (centres unmarked) [Example 15] | 94
7 | Cc1ccnc(N2CCN(CCC3Cn4c(-c5cc(C)c(O)c(C)c5)c(C)c5cccc(c54)O3)CC2)c1 (centres unmarked) [Example 20] | 75
8 | Cc1cc(-c2c(C)c3cccc4c3n2CC(CCCC(=O)N2CCN(c3ccccn3)CC2)O4)cc(C)c1O (centres unmarked) [Example 23] | 92
9 | Cc1cc(-c2c(C)c3cccc4c3n2CC(CCC(=O)N2CCN(c3ccccn3)CC2)O4)cc(C)c1O (centres unmarked) [Example 26] | 67
10 | Cc1cc(-c2c(C)c3c(F)ccc4c3n2CC(CCN2CCN(c3ccccn3)CC2)O4)cc(C)c1O (centres unmarked) [Example 27] | 90
11 | Cc1ccnc(N2CCN(CCC3Cn4c(-c5cc(C)c(O)c(C)c5)c(C)c5c(F)ccc(c54)O3)CC2)c1 (centres unmarked) [Example 28] | 48
12 | Cc1ccc(N2CCN(C(=O)CCC3Cn4c(-c5ccc(O)cc5)c(C)c5cccc(c54)O3)CC2)nc1 (centres unmarked) [Example 34] | 95
13 | COc1cc(-c2c(C)c3cccc4c3n2CC(CCC(=O)N2CCN(c3ccc(C)cn3)CC2)O4)ccc1O (centres unmarked) [Example 39] | 98
14 | COc1cc2c3c(c1)c(C)c(-c1cc(C)c(O)c(C)c1)n3CC(CCN1CCN(c3cc(C)ccn3)CC1)O2 (centres unmarked) [Example 43] | 66
15 | Cc1ccnc(N2CCN(CCC3Cn4c(-c5cc(C)c(O)c(C)c5)c(C)c5cc(O)cc(c54)O3)CC2)c1 (centres unmarked) [Example 44] | 100
16 | Cc1cc(-c2c(C)c3cccc4c3n2CC(CCCCN2CCN(c3ccccn3)CC2)O4)cc(C)c1O (centres unmarked) [Example 65] | 64
17 | Cc1ccnc(N2CCN(C(=O)CCC3Cn4c(-c5cc(C)c(O)c(C)c5)c(C)c5c(O)ccc(c54)O3)CC2)c1 (centres unmarked) [Example 67] | 100
18 | Cc1ccnc(N2CCN(C(=O)CCC3Cn4c(-c5ccc(O)cc5)c(C)c5c(O)ccc(c54)O3)CC2)c1 (centres unmarked) [Example 69] | 100
19 | Cc1cc(-c2c(C)c3c(O)ccc4c3n2CC(CCC(=O)N2CCN(c3ccccn3)CC2)O4)cc(C)c1O (centres unmarked) [Example 71] | 100
20 | COc1cc(-c2c(C)c3c(O)ccc4c3n2CC(CCC(=O)N2CCN(c3ccccn3)CC2)O4)cc(C)c1O (centres unmarked) [Example 72] | 100
21 | Cc1ccnc(N2CCN(CCCC3Cn4c(-c5cc(C)c(O)c(C)c5)c(C)c5c(O)ccc(c54)O3)CC2)c1 (centres unmarked) [Example 73] | 100
22 | Cc1cccnc1N1CCN(CCCC2Cn3c(-c4cc(C)c(O)c(C)c4)c(C)c4c(O)ccc(c43)O2)CC1 (centres unmarked) [Example 74] | 100
23 | Cc1cc(-c2c(C)c3c(OCc4ccccc4)ccc4c3n2CC(CCC(=O)N2CCN(c3ccccn3)CC2)O4)cc(C)c1O (centres unmarked) [Example 75] | 51
